Measured values as given in ChEMBL document CHEMBL2407030, “Novel nicotinic acetylcholine receptor agonists containing carbonyl moiety as a hydrogen bond acceptor” (Bioorg Med Chem Lett, 2013).
pEC50, pKi: −log10 of the molar value.

Legend:
[1] = biological target: T1, Neuronal acetylcholine receptor; alpha3/beta4 (Homo sapiens, UniProt P30926+P32297); assay: Agonist activity at human alpha3beta4 nACHR expressed in CHO cell membranes assessed as stimulation of calcium flux by FLIPR assay relative to control; format: cell-based
T1 sequence (P30926 whole entry): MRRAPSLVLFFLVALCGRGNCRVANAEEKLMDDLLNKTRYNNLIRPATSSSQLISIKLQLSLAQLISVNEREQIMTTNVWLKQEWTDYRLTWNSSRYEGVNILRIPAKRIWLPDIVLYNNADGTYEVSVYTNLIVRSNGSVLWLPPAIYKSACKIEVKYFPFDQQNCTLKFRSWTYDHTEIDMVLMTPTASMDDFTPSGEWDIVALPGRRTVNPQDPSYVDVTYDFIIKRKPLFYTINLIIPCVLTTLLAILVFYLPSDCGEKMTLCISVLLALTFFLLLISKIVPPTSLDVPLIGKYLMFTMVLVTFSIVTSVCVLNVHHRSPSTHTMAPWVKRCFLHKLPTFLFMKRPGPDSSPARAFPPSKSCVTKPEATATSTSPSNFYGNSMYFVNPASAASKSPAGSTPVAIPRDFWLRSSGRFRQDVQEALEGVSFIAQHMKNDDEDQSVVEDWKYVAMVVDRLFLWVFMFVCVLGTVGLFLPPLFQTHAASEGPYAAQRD
T1 sequence (P32297 whole entry): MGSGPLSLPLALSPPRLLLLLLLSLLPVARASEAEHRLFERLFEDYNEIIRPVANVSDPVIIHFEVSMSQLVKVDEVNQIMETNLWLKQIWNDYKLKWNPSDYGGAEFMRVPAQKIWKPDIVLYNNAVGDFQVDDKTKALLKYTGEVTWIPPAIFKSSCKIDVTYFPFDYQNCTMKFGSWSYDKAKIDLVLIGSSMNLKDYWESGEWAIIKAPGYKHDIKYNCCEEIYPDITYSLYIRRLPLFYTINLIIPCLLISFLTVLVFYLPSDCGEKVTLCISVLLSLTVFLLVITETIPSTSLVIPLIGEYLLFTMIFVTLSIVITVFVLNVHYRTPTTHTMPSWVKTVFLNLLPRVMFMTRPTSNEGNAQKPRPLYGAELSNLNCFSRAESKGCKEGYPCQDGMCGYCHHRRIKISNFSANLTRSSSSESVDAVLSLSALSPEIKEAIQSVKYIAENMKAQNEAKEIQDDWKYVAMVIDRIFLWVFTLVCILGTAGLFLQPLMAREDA

[2] = biological target: Neuronal acetylcholine receptor subunit alpha-7 (Homo sapiens, UniProt P36544); assay: Displacement of [3H]Epibatidine from human alpha7 nACHR expressed in CHO cell membranes after 2 hrs by liquid scintillation counting analysis
Neuronal acetylcholine receptor subunit alpha-7, sequence (P36544 whole entry): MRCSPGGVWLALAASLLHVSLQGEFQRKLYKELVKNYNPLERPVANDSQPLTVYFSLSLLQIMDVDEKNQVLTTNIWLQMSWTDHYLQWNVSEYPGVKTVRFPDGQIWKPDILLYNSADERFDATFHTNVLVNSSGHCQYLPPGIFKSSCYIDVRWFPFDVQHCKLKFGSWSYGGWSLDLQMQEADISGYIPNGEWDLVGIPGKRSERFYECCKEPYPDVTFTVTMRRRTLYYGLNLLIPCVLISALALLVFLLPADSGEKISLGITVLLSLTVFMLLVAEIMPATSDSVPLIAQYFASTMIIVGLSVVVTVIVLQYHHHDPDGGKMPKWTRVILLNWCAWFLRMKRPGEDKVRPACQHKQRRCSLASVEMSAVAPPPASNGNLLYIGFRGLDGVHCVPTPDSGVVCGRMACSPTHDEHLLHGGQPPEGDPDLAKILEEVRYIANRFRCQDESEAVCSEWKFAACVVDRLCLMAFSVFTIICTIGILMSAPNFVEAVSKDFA

[3] = biological target: T2, Neuronal acetylcholine receptor; alpha4/beta2 (Homo sapiens, UniProt P17787+P43681); assay: Agonist activity at alpha4beta2 nACHR in human SHEP1 cell membranes assessed as stimulation of calcium flux by FLIPR assay; format: cell-based
T2 sequence (P17787 whole entry): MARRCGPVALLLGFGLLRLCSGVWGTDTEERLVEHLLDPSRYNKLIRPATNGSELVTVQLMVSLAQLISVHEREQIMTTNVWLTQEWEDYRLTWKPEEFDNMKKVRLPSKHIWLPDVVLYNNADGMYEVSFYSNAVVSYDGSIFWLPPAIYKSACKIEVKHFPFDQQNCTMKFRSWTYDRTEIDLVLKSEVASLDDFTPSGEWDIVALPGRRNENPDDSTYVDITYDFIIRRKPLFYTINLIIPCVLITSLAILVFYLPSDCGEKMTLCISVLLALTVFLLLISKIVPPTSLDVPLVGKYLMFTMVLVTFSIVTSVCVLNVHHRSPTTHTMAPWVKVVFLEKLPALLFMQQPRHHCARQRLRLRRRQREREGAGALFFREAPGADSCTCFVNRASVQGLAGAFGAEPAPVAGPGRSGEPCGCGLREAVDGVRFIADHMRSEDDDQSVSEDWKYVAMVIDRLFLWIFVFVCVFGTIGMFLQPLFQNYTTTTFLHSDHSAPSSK
T2 sequence (P43681 whole entry): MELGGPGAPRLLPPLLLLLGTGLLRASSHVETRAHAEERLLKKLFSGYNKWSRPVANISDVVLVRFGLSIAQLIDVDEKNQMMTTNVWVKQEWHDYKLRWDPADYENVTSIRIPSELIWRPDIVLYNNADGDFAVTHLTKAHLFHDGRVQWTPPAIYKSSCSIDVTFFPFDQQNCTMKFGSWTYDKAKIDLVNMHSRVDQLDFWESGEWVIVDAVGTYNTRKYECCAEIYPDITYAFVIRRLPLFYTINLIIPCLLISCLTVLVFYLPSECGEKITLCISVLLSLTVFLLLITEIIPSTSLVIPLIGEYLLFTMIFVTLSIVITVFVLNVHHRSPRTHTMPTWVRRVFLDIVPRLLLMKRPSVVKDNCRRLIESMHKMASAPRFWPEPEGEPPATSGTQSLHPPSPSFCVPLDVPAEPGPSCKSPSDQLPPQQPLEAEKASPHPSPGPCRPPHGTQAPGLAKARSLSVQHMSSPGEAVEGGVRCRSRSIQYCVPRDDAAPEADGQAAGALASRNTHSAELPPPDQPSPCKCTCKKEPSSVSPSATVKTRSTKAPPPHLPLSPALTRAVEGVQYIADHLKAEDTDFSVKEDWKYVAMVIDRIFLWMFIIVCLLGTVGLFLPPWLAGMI

[4] = biological target: T2, Neuronal acetylcholine receptor; alpha4/beta2; assay: Displacement of [3H]Nicotine from alpha4beta2 nACHR in human SHEP1 cell membranes after 2 hrs by liquid scintillation counting analysis
[5] = biological target: T1, Neuronal acetylcholine receptor; alpha3/beta4; assay: Agonist activity at human alpha3beta4 nACHR expressed in CHO cell membranes assessed as stimulation of calcium flux by FLIPR assay; format: cell-based
[6] = biological target: T1, Neuronal acetylcholine receptor; alpha3/beta4; assay: Displacement of [3H]Epibatidine from human alpha3beta4 nACHR expressed in CHO cell membranes after 2 hrs by liquid scintillation counting analysis
[7] = biological target: T2, Neuronal acetylcholine receptor; alpha4/beta2; assay: Agonist activity at alpha4beta2 nACHR in human SHEP1 cell membranes assessed as stimulation of calcium flux by FLIPR assay relative to control; format: cell-based

Structure (SMILES)	Emax [1] [%]	pKi [2]	pEC50 [3]	pKi [4]	pEC50 [5]	pKi [6]	Emax [7] [%]
CC(C)NC(=O)[C@H]1C[C@@H]2CNC[C@@H](C2)C1	25	4.96	5.72	7.64	4.57	5.22	64
O=C(C1CC1)[C@H]1C[C@@H]2CNC[C@@H](C2)C1	10		5.15	7.37	5.89	5.39	22
O=C(c1ccco1)[C@H]1C[C@@H]2CNC[C@@H](C2)C1		4.82		6.96			
CNC(=O)[C@H]1C[C@@H]2CNC[C@@H](C2)C1	5		5.70	8.72	4.00		65
CCCNC(=O)[C@H]1C[C@@H]2CNC[C@@H](C2)C1	24	5.00	5.62	8.22	4.82	5.40	54
CN1CCC[C@H]1c1cccnc1	100						100
COC(=O)C1CC2CNCC(C2)C1 (mixture of isomers)				5.62			
O=C([C@@H]1C[C@@H]1F)N1CC2CNCC2C1 (mixture of isomers)	88	5.16	6.03	7.77	4.89	6.07	120
O=C([C@H]1C[C@H]1F)N1CC2CNCC2C1 (mixture of isomers)	140	5.85	6.00	8.30	4.62	6.42	130
O=C([C@H]1C[C@@H]1F)N1CC2CNCC2C1 (mixture of isomers)	90	5.57	6.05	7.52	4.85	6.09	140
O=C([C@@H]1C[C@H]1F)N1CC2CNCC2C1 (mixture of isomers)	150	6.00	6.72	8.05	5.08	6.38	130
C[C@H]1C[C@H]1C(=O)N1CC2CNCC2C1 (mixture of isomers)	110	5.35	4.72	7.74	5.00	5.70	100
C[C@@H]1C[C@@H]1C(=O)N1CC2CNCC2C1 (mixture of isomers)	180	6.46	5.92	9.00	5.85	6.55	140
C[C@@H]1C[C@H]1C(=O)N1CC2CNCC2C1 (mixture of isomers)	110	5.72	5.77	8.40	4.85	6.44	100
C[C@H]1C[C@@H]1C(=O)N1CC2CNCC2C1 (mixture of isomers)	26	4.00	5.25	7.37	4.47	4.89	68
O=C([C@@H]1C[C@@H]1F)N1CC2CNCC(C2)C1 (mixture of isomers)	90	6.52	6.40	8.28	4.96	5.92	11

Structure (SMILES)	Emax [1] [%]	pKi [2]	pEC50 [3]	pKi [4]	pEC50 [5]	pKi [6]	Emax [7] [%]
O=C([C@H]1C[C@H]1F)N1CC2CNCC(C2)C1 (mixture of isomers)	130	7.00	5.04	8.85	5.68	6.82	7
O=C([C@@H]1C[C@H]1F)N1CC2CNCC(C2)C1 (mixture of isomers)	130	8.00	6.37	9.00	6.41	7.44	77
O=C([C@H]1C[C@@H]1F)N1CC2CNCC(C2)C1 (mixture of isomers)	210	6.40	5.57	8.14	5.10	6.49	84
C[C@@H]1C[C@H]1C(=O)N1CC2CNCC(C2)C1 (mixture of isomers)	120	7.52	4.92	9.00	5.80	7.00	23
C[C@H]1C[C@@H]1C(=O)N1CC2CNCC(C2)C1 (mixture of isomers)	89	6.52	5.00	7.55	5.08	6.22	21
C[C@@H]1C[C@@H]1C(=O)N1CC2CNCC(C2)C1 (mixture of isomers)	160	8.30	5.72	9.70	7.10	8.00	5
C[C@H]1C[C@H]1C(=O)N1CC2CNCC(C2)C1 (mixture of isomers)	140	7.00	4.00	8.54	6.52	7.00	0.5
CC(=O)N1CC2CNCC2C1 (mixture of isomers)	36		5.59	7.42	4.64	4.85	110
CC(=O)N1CC2CNCC(C2)C1 (mixture of isomers)	110	5.48	5.00		4.89	5.26	34
CCC(=O)N1CC2CNCC(C2)C1 (mixture of isomers)	130	5.80	5.72	8.10	5.23	4.70	83
COC(=O)N1CC2CNCC(C2)C1 (mixture of isomers)			5.28	7.70			65
COC(=O)N1CC2CNCC2C1 (mixture of isomers)	85			7.64	4.80	4.85	
CNC(=O)[C@H]1C[C@H]2CNC[C@H]2C1 (mixture of isomers)		4.57		6.74			
O=C(C1CC1)[C@H]1C[C@H]2CNC[C@H]2C1 (mixture of isomers)	130	6.85	7.74	9.30	6.03	7.15	120
O=C(c1ccco1)[C@H]1C[C@H]2CNC[C@H]2C1 (mixture of isomers)	40	5.47	5.80	7.89	4.96	5.66	94
COC(=O)[C@H]1C[C@H]2CNC[C@H]2C1 (mixture of isomers)	100	4.89	5.92	8.10	4.85	6.40	130
